The test system of one assay is AP-1. As to the kind of experiment: Cellular Transrepressional Assay (AP-1 luciferase reporter in A549 cells). Format: cell-based. The settings on record: A549 cell stably transfected with pAP-1-Luc, 10 ng/ml PMA, 7 hours; for AP-1 Max % inh (Cellular Transrepression Assay): maximum inhibition; for EC50: read-out: AP-1 EC50, nM (Cellular Transrepression Assay). As for the experimental part: Cellular Transrepressional Assay
To measure the ability of test molecules to inhibit AP-1 induced transcriptional activity, an A549 cell was utilized which was stably transfected with a plasmid containing 7×AP-1 DNA binding sites (pAP-1-Luc plasmid, Stratagene Co. La Jolla, Calif.) followed by the gene for luciferase. Cells were activated with 10 ng/ml of […] (PMA) plus or minus test molecules for 7 hours. After 7 hours a luciferase reagent was added to measure luciferase enzymatic activity in the cell. After a 10 minute incubation of luciferase reagent with cells, luminescence was measured in a TopCount luminescence counter. Repression of AP-1 activity was calculated as the percentage decrease in the signal induced by PMA alone. Test molecules were analyzed in the concentration range from 0.1 nM to 40 μM. EC50s were determined by using standard curve fitting methods such as Excel fit (Microsoft Co.).
A general note: In a reporter assay the amount or activity of a reporter protein is the signal.

Assay [1] deals with T1, human glucocorticoid receptor (Homo sapiens, UniProt P04150).
T1 construct: purified human recombinant full-length glucocorticoid receptor (2 nM); purchased Invitrogen Part #2893
T1 sequence (P04150 1-777): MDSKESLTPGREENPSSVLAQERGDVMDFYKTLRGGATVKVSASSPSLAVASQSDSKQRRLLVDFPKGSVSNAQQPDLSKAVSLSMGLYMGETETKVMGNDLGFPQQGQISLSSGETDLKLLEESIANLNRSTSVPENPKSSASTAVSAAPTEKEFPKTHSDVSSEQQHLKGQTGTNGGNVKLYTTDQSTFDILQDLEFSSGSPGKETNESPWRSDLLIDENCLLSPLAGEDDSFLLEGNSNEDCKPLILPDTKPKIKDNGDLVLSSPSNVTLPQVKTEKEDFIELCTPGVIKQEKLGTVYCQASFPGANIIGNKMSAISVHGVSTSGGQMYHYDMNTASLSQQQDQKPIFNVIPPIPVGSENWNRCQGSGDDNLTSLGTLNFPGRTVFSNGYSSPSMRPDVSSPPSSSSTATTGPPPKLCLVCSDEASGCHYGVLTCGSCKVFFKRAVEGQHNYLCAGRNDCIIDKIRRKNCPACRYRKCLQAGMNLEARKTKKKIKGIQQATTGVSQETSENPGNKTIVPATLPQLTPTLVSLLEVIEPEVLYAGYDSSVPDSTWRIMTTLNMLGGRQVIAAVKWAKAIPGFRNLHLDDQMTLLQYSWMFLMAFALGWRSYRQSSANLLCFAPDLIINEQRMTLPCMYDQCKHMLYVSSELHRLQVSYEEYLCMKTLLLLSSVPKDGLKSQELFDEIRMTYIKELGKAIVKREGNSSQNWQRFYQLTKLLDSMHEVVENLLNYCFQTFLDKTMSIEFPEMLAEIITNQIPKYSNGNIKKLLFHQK
The assay is described as follows: Glucocorticoid Receptor Binding Assay (fluorescence polarization competitor kit). To be noted: purified human recombinant full-length GR 2 nM, 1 nM Fluormone GS Red, 2 h room temperature. As for the experimental part:
Glucocorticoid Receptor Binding Assay
In order to assess the affinity of test compounds for the human glucocorticoid receptor, a commercially available kit was used (Glucocorticoid Receptor Competitor Assay Kit, Invitrogen Part #2893). Briefly, purified human recombinant full-length glucocorticoid receptor (2 nM) was mixed with fluorescently labeled glucocorticoid (1 nM Fluormone GS Red) in the presence or absence of test compound. After two hour incubation at room temperature in the dark, the fluorescence polarization (FP) of the samples was measured. […] Test compounds were analyzed in the concentration range from 8.5E-05 μM to 5 μM.
(In fluorescence polarisation assays a small probe gives low polarisation when free and higher when bound to something large.)

As for `CC(C)(C(=O)Nc1nncs1)C(c1ccccc1)c1ccn2c(-c3ccccc3)ncc2c1` (stereo not shown) [Example 1, 2,2-Dimethyl-3-phenyl-3-(3-phenylH-imidazo[1,5-a]pyridin-7-yl)-N-(1,3,4-thiadiazol-2-yl)propanamide], in the assay on AP-1, the “AP-1 Max % inh (Cellular Transrepression Assay)” value (shortened to “AP-1 Max % inh”) is 63.58% and the EC50 amounted to 112 nM. Regarding `CC(C)(CNC(=O)C(F)(F)F)C(c1ccccc1)c1ccn2c(-c3ccccc3)ncc2c1` (stereo not shown) [Example 2, N-(2,2-Dimethyl-3-phenyl-3-(3-phenylH-imidazo[1,5-a]pyridin-7-yl)propyl)-2,2,2-trifluoroacetamide], in assay [1], the inhibition constant (Ki) was determined as 16.5 nM. Same read-out and setting: as for `CCOC(=O)NCC(C)(C)C(c1ccccc1)c1ccn2c(-c3ccccc3)ncc2c1` (stereo not shown) [Example 3, Ethyl 2,2-dimethyl-3-phenyl-3-(3-phenylH-imidazo[1,5-a]pyridin-7-yl)propylcarbamate], the figure is 27.4 nM. For the molecule `CC(C)(C(=O)Nc1nccs1)C(c1ccccc1)c1ccc2cncn2c1` (stereo not shown) [Example 4, 3-(H-Imidazo[1,5-a]pyridin-6-yl)-2,2-dimethyl-3-phenyl-N-(thiazol-2-yl)propanamide], the inhibition constant (Ki) in assay [1] is 13 nM. In the case of `CC(C)(C(=O)Nc1nccs1)C(c1ccccc1)c1ccc2c(-c3ccc(F)cc3)ncn2c1` (stereo not shown) [Example 5, 3-(1-(4-Fluorophenyl)H-imidazo[1,5-a]pyridin-6-yl)-2,2-dimethyl-3-phenyl-N-(thiazol-2-yl)propanamide], in the assay with AP-1, the “AP-1 Max % inh” value worked out at 71.08% and the EC50 is 34.1 nM. With `CC(C)(C(=O)Nc1nccs1)C(c1ccccc1)c1ccc2c(Br)ncn2c1` (stereo not shown) [Example 6, 3-(1-BromoH-imidazo[1,5-a]pyridin-6-yl)-2,2-dimethyl-3-phenyl-N-(thiazol-2-yl)propanamide], the Ki in assay [1] is 30.2 nM. Turning to `CC(C)(C(=O)Nc1nccs1)C(c1ccccc1)c1ccc2c(-c3cccc(C#N)c3)ncn2c1` (stereo not shown) [Example 7, 3-(1-(3-Cyanophenyl)H-imidazo[1,5-a]pyridin-6-yl)-2,2-dimethyl-3-phenyl-N-(thiazol-2-yl)propanamide], the Ki in assay [1] stood at 17 nM. The same measure, in the same setting: under `CC(C)(C(=O)Nc1nccs1)C(c1ccccc1)c1ccc2nncn2c1` (stereo not shown) [Example 8, 3-([1,2,4]-Triazolo[4,3-a]pyridin-6-yl)-2,2-dimethyl-3-phenyl-N-(thiazol-2-yl)propanamide] stands 169 nM. As to `CC(C)(C(=O)Nc1nccs1)C(c1ccccc1)c1ccn2c(-c3ccccc3)ncc2c1` (stereo not shown) [Example 9], in the assay on AP-1, the “AP-1 Max % inh” value is 67.35% and the concentration for a half-maximal effect (EC50) stood at 10.1 nM.

Consider `CC(C)(C(=O)NC1CC1)C(c1ccccc1)c1ccn2c(-c3ccccc3)ncc2c1` (stereo not shown) [Example 10], for which the Ki in assay [1] amounted to 7.3 nM. As to `CC(C)(C(=O)Nc1nncs1)C(c1ccccc1)c1ccn2cncc2c1` (stereo not shown) [Example 11], the inhibitory constant (Ki) in assay [1] turned out to be 27.1 nM. `CC(C)(C(=O)Nc1nccs1)C(c1ccccc1)c1ccn2cncc2c1` (stereo not shown) [Example 12]: in assay [1], the inhibition constant (Ki) came to 17.7 nM. The same measure, in the same setting: as for `CC(C)(C(=O)Nc1nncs1)C(c1ccccc1)c1ccc2cncn2c1` (stereo not shown) [Example 13], the figure is 19.5 nM. As to `CC(C)(C(=O)Nc1nncs1)C(c1ccccc1)c1ccc2c(-c3ccc(F)cc3)ncn2c1` (stereo not shown) [Example 14], in the assay on AP-1, the “AP-1 Max % inh” value is recorded as 55.80% and the EC50 was determined as 43.6 nM. In the case of `CC(C)(C(=O)Nc1nncs1)C(c1ccccc1)c1ccc2c(-c3cccc(C#N)c3)ncn2c1` (stereo not shown) [Example 15], in assay [1], the Ki turned out to be 22.6 nM. As to `CC(C)(C(=O)Nc1nccs1)C(c1ccccc1)c1ccc2c(-c3ccc(C#N)cc3)ncn2c1` (stereo not shown) [Example 16], the inhibitory constant (Ki) in assay [1] was determined as 26.2 nM.

`CC(C)(C(=O)Nc1nccs1)C(c1ccccc1)c1ccc2c(-c3ccc(F)cc3F)ncn2c1` (stereo not shown) [Example 18]: in the assay with AP-1, the “AP-1 Max % inh” value was 55.81% and the EC50 is 13 nM. For `CC(C)(C(=O)Nc1nncs1)C(c1ccccc1)c1ccc2c(-c3ccc(F)cc3F)ncn2c1` (stereo not shown) [Example 19], in the assay on AP-1, the “AP-1 Max % inh” value worked out at 45.65% and the EC50 was 16 nM. Consider `CC(C)(C(=O)Nc1nccs1)C(c1ccccc1)c1ccc2c(-c3ccc(F)c(Cl)c3)ncn2c1` (stereo not shown) [Example 20], for which, in assay [1], the Ki stood at 65.9 nM. Consider `CC(C)(C(=O)Nc1nncs1)C(c1ccccc1)c1ccc2c(-c3ccc(F)c(Cl)c3)ncn2c1` (stereo not shown) [Example 21], for which the Ki in assay [1] worked out at 46.6 nM.

For `CC(C)(C(=O)Nc1nncs1)C(c1ccccc1)c1ccc2c(-c3cccc(CO)c3)ncn2c1` (stereo not shown) [Example 22], the inhibitory constant (Ki) in assay [1] came to 12.2 nM. On to `Cc1cscc1-c1ncn2cc(C(c3ccccc3)C(C)(C)C(=O)Nc3nncs3)ccc12` (stereo not shown) [Example 23], for which, in assay [1], the Ki amounted to 36 nM. Regarding `CC(C)(C(=O)Nc1nncs1)C(c1ccccc1)c1ccc2nncn2c1` (stereo not shown) [Example 24], the Ki in assay [1] was 327 nM. With `Cc1nnc2ccc(C(c3ccccc3)C(C)(C)C(=O)Nc3nccs3)cn12` (stereo not shown) [Example 25], in assay [1], the Ki came to 2360 nM. Consider `Cc1nnc2ccc(C(c3ccccc3)C(C)(C)C(=O)Nc3nncs3)cn12` (stereo not shown) [Example 26], for which the Ki in assay [1] is 5450 nM.

In general, EC50 refers to the midpoint of the concentration-response curve. The Ki is a measure of affinity in units of concentration, obtained from inhibition or displacement.

(Values after US7994190B2, “Modulators of glucocorticoid receptor, AP-1, and/or NF-κB activity and use thereof” (Bristol-Myers Squibb Company, priority 2006, dated 2011).)
